For experiment [1], the target named is T1, AEA-DA lipid probe targets in Neuro2a cells (Mus musculus, UniProt Q9EQI8).
T1 sequence (Q9EQI8 1-283): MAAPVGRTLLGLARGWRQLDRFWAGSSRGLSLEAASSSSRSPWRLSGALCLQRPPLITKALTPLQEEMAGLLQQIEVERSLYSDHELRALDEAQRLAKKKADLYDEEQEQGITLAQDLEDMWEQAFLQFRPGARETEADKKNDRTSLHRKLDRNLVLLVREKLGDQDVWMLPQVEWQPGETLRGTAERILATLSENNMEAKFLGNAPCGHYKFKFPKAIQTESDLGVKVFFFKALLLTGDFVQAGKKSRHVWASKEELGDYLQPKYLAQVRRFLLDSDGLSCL

For experiment [2], the target named is AEA-DA lipid probe targets in Neuro2a cells (Mus musculus, UniProt Q8BG32).
AEA-DA lipid probe targets in Neuro2a cells (Mus musculus, UniProt Q8BG32), sequence (Q8BG32 whole entry): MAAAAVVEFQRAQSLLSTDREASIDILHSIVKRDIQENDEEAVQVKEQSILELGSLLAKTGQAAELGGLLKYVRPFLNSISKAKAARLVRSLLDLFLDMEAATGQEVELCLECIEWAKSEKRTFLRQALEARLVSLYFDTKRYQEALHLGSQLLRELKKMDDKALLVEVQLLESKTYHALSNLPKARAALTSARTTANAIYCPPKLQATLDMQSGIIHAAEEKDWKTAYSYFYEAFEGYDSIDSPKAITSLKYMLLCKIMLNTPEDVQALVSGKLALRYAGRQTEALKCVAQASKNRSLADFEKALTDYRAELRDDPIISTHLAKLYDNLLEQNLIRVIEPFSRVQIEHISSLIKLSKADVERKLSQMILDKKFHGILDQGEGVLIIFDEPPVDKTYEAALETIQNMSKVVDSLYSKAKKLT
Experiment [3] addresses AEA-DA lipid probe targets in Neuro2a cells (Mus musculus, UniProt Q9DBG6).
The target in experiment [4] is T2, AEA-DA lipid probe targets in Neuro2a cells (Mus musculus, UniProt O88325).
T2 sequence (O88325 22-739): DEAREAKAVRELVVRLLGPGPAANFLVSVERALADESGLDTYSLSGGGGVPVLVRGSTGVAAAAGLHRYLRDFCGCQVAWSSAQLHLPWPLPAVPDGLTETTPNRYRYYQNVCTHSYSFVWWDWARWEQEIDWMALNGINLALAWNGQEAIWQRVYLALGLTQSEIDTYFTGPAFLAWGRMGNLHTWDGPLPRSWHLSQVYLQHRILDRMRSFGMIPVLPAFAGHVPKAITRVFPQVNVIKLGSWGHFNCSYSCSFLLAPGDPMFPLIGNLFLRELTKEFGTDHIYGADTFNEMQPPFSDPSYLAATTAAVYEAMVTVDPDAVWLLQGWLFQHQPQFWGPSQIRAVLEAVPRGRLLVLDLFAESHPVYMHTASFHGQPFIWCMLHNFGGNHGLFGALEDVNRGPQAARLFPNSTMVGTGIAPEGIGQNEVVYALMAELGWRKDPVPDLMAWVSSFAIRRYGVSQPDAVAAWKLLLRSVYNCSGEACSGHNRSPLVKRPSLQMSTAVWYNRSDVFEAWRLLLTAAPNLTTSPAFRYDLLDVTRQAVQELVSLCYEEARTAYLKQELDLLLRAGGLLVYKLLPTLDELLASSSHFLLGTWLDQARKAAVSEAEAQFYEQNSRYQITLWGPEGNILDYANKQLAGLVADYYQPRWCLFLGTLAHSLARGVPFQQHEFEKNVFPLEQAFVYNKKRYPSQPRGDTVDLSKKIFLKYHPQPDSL

Experiment [5] has as its target T3, AEA-DA lipid probe targets in Neuro2a cells (Mus musculus, UniProt Q8BXV2).
T3 sequence (Q8BXV2 1-253): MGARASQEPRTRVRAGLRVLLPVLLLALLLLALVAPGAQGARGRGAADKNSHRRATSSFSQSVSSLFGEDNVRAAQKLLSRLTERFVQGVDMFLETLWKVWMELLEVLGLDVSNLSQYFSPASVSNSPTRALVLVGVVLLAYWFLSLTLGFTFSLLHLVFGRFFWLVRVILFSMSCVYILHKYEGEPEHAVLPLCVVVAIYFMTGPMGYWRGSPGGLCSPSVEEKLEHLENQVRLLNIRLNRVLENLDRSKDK

Experiment [6] has as its target T4, AEA-DA lipid probe targets in Neuro2a cells (Mus musculus, UniProt P48678).
T4 sequence (P48678 1-665): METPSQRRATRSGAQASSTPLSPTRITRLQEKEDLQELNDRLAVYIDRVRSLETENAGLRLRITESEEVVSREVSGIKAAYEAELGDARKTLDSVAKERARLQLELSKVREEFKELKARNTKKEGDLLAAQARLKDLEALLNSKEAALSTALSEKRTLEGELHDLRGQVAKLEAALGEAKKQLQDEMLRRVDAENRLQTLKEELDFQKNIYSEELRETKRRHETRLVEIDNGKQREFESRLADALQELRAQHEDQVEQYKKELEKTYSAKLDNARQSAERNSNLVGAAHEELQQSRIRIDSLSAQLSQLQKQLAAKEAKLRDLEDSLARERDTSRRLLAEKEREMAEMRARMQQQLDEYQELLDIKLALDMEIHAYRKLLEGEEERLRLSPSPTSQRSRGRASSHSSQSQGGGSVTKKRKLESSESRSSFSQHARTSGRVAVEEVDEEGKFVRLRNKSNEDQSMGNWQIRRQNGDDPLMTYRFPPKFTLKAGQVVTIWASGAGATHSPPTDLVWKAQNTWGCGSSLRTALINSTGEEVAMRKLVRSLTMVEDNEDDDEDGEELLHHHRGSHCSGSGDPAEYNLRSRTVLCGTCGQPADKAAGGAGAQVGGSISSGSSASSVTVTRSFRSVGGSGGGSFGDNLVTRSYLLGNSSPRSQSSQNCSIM

The target in experiment [7] is AEA-DA lipid probe targets in Neuro2a cells (Mus musculus, UniProt P09055).
AEA-DA lipid probe targets in Neuro2a cells (Mus musculus, UniProt P09055), sequence (P09055 21-798): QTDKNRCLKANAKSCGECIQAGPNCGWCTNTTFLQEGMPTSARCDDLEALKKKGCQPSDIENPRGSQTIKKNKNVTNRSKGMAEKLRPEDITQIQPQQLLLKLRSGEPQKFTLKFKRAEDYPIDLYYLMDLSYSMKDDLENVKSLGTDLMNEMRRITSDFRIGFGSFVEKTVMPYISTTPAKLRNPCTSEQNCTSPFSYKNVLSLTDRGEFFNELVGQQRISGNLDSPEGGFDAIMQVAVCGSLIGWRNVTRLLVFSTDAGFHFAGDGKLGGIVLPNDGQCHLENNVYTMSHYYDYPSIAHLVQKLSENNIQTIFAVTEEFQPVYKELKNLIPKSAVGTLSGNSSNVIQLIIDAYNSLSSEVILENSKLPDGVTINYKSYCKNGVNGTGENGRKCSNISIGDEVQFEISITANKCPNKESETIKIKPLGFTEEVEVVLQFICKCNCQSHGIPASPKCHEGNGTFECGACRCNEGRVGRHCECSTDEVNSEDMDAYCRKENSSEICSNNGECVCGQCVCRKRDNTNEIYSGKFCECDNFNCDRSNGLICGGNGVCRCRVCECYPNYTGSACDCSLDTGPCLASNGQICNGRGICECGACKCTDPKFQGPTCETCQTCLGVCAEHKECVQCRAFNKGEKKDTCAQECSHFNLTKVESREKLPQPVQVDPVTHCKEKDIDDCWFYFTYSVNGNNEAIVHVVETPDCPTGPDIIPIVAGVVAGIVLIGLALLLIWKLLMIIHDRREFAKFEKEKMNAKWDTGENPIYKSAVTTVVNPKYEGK
The target in experiment [8] is T5, AEA-DA lipid probe targets in Neuro2a cells (Mus musculus, UniProt Q8BSF4).
T5 sequence (Q8BSF4 50-406): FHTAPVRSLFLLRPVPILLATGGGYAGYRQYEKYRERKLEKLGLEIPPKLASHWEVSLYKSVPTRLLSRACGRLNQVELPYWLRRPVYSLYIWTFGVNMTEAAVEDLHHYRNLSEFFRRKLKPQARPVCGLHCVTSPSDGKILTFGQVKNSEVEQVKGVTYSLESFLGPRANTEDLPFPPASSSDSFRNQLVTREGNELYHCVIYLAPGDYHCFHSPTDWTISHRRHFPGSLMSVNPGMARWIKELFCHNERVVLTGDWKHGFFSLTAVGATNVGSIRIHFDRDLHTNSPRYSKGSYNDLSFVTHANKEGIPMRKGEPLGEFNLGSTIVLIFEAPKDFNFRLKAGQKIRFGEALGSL

Experiment [9] addresses AEA-DA lipid probe targets in Neuro2a cells (Mus musculus, UniProt Q8BK63).

The results in this text go back to patent US10168342B2, “Lipid probes and uses thereof” (THE SCRIPPS RESEARCH INSTITUTE, priority 2015, dated 2019).

Read-outs that look alike come from different tables or passages of the source.

AEA-DA lipid probe targets in Neuro2a cells (Mus musculus, UniProt Q8BK63), sequence (Q8BK63 whole entry): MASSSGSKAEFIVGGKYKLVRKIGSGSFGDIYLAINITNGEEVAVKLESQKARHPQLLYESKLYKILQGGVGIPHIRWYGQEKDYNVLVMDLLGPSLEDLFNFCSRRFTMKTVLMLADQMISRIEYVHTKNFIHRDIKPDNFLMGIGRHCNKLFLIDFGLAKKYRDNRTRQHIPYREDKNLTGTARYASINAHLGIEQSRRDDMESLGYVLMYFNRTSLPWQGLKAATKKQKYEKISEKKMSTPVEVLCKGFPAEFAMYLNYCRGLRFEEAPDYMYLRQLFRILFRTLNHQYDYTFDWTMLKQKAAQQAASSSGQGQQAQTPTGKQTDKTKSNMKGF
AEA-DA lipid probe targets in Neuro2a cells (Mus musculus, UniProt Q9DBG6), sequence (Q9DBG6 23-631): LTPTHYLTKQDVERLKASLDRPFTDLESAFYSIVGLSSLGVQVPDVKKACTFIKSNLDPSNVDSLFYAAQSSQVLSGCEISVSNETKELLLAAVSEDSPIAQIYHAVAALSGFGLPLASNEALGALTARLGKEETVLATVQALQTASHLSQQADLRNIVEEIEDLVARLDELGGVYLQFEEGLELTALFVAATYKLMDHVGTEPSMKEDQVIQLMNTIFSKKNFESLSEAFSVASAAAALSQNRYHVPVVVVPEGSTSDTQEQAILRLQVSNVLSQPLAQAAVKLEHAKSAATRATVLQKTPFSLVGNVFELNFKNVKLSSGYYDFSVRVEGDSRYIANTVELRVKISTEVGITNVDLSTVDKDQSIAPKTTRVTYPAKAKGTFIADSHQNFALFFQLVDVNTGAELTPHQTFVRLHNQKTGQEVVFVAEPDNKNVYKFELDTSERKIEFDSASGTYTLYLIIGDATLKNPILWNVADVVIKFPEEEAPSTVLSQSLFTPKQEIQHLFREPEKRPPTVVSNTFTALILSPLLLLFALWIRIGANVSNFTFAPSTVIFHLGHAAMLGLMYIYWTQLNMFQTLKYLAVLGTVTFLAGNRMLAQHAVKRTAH

`CCCCC/C=C\C/C=C\C/C=C\C/C=C\CCCC(=O)NCCO` [AEA, anandamide, reference compound]: the “SILAC ratio Mrpl46” value in [1] (competitor 200 μM) is 1.3. Besides, the “SILAC ratio Psmd11” value in [2] (competitor 200 μM) turned out to be 1.2. For the same molecule, the “SILAC ratio Rpn2” value in experiment [3] (competitor 200 μM) is given as 1.3. For the same molecule, the “SILAC ratio Naglu” value in experiment [4] (competitor 200 μM) is 1.3. Further, the “SILAC ratio, Bri3bp” value in experiment [5] (competitor 200 μM) stood at 2.0. Moreover, the “SILAC ratio Lmna” value in [6] (competitor 200 μM) is on record as 1.1. Moreover, in experiment [7] (competitor 200 μM), the “SILAC ratio Itgb1” value worked out at 1.5. The “SILAC ratio, Pisd” value in [8] (competitor 200 μM) is given as 1.8.
In the case of `C=CCN(C)CCCCCCOc1ccc(C(=O)c2ccc(Br)cc2)c(F)c1` [Ro 48-8071, reference compound], the “SILAC ratio Csnk1a1” value in experiment [9] (competitor 25 μM) was 0.9. Moreover, the “SILAC ratio Mrpl46” value in [1] (competitor 25 μM) turned out to be 0.9. The “SILAC ratio Psmd11” value in experiment [2] (competitor 25 μM) came to 0.9. The “SILAC ratio Rpn2” value in experiment [3] (competitor 25 μM) came out at 1.0. In [4] (competitor 25 μM), the “SILAC ratio Naglu” value was 0.3. Moreover, in [5] (competitor 25 μM), the “SILAC ratio, Bri3bp” value was determined as 1.1. Moreover, in experiment [6] (competitor 25 μM), the “SILAC ratio Lmna” value was 1.1. The “SILAC ratio, Pisd” value in experiment [8] (competitor 25 μM) came to 1.3.
`CN1CCN(C(=O)c2c(-c3ccccc3)c3cc([N+](=O)[O-])ccc3n2C)CC1` [KML110, (1-Methyl-5-nitro-3-phenyl-1H-indol-2-yl)(4-methylpiperazin-1-yl)methanone]: the “SILAC ratio Csnk1a1” value in experiment [9] (competitor 25 μM) amounted to 1.5. In addition, the “SILAC ratio Mrpl46” value in experiment [1] (competitor 25 μM) is 1.3. Moreover, the “SILAC ratio Psmd11” value in experiment [2] (competitor 25 μM) is 1.3. For the same molecule, the “SILAC ratio Rpn2” value in [3] (competitor 25 μM) is listed as 1.2. Further, in experiment [4] (competitor 25 μM), the “SILAC ratio Naglu” value was determined as 1.4. In addition, the “SILAC ratio, Bri3bp” value in [5] (competitor 25 μM) worked out at 1.6. Besides, the “SILAC ratio Lmna” value in experiment [6] (competitor 25 μM) was 1.3. The “SILAC ratio Itgb1” value in experiment [7] (competitor 25 μM) turned out to be 1.0. Besides, in experiment [8] (competitor 25 μM), the “SILAC ratio, Pisd” value turned out to be 1.4.
On to `O=C(/C=C/c1cccnc1)NCCCCC1CCN(C(=O)c2ccccc2)CC1` [FK-866, reference compound], for which the “SILAC ratio Csnk1a1” value in experiment [9] (competitor 25 μM) is 1.5. In addition, the “SILAC ratio Mrpl46” value in experiment [1] (competitor 25 μM) was found to be 1.3. In addition, the “SILAC ratio Psmd11” value in experiment [2] (competitor 25 μM) was determined as 1.3. In [3] (competitor 25 μM), the “SILAC ratio Rpn2” value was 1.1. For the same molecule, the “SILAC ratio Naglu” value in experiment [4] (competitor 25 μM) worked out at 1.3. In addition, the “SILAC ratio, Bri3bp” value in experiment [5] (competitor 25 μM) was 1.1. In addition, the “SILAC ratio Lmna” value in [6] (competitor 25 μM) is 1.2.
For the molecule `CN1CCN(C(=O)c2[nH]c3ccc([N+](=O)[O-])cc3c2-c2ccccc2)CC1` [MJN228, (4-Methylpiperazin-1-yl)(5-nitro-3-phenyl-1H-indol-2-yl)methanone], the results for the “SILAC ratio Csnk1a1” value in experiment [9] (competitor 25 μM) and in [9] (competitor 100 μM) were 1.4 and 1.3, respectively. The “SILAC ratio Mrpl46” value in experiment [1] (competitor 10 μM) is 1.0; in experiment [1] (competitor 25 μM) it was 1.3; in experiment [1] (competitor 50 μM), 1.0; in [1] (competitor 100 μM) it was 1.3. In experiment [2] (competitor 25 μM), the “SILAC ratio Psmd11” value was determined as 1.3. In addition, the “SILAC ratio Rpn2” value is 1.2 in experiment [3] (competitor 10 μM), 1.3 in experiment [3] (competitor 25 μM), 1.4 in experiment [3] (competitor 50 μM) and 1.7 in [3] (competitor 100 μM). Moreover, the “SILAC ratio Naglu” value in experiment [4] (competitor 10 μM) came out at 1.4; in [4] (competitor 25 μM), 1.3; in experiment [4] (competitor 50 μM) it was 1.9; in experiment [4] (competitor 100 μM), 1.7. The “SILAC ratio, Bri3bp” value in experiment [5] (competitor 10 μM) came to 1.3; in experiment [5] (competitor 25 μM), 1.5; in [5] (competitor 50 μM), 1.4; in experiment [5] (competitor 100 μM), 2.1. In addition, the “SILAC ratio Lmna” value in experiment [6] (competitor 10 μM) came out at 1.3; in [6] (competitor 25 μM), 1.1; in [6] (competitor 50 μM) it was 1.3; in experiment [6] (competitor 100 μM) it was 1.5. In addition, the “SILAC ratio Itgb1” value in [7] (competitor 10 μM) is reported as 1.2; in experiment [7] (competitor 25 μM) it was 1.3; in [7] (competitor 50 μM) it was 1.1; in experiment [7] (competitor 100 μM), 1.1. In addition, the “SILAC ratio, Pisd” value in experiment [8] (competitor 25 μM) was found to be 1.4.
